Experimental data as given in PubChem BioAssay AID602156 (GNF / Scripps Winzeler lab, 2011).
“And” between values parts separate entries of the source, which are not always exact repeats. Equal entries are not always repeated. The source made the active and inactive calls. No rule for the calls is given here.

System: P. yoelii liver stage in HepG2-A16-CD81EGFP, imaging
Experiment: exo-erythrocytic parasite development inhibition – imaging, Malaria Box, P. yoelii, HepG2-A16-CD81EGFP, dose response (AID 602156);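 also: infected cells exposed to compound for 48 hours before fixation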

SMILES	IC50
CC(=O)N(C)C1=C(N2CCCC2)C(=O)c2ccccc2C1=O	4950 nM
CCCCCc1ccc(OCCCC[n+]2cccc(C)c2)c(CCCCC)c1	34.6 nM
CC[n+]1cc(-c2ccc(C)cc2)sc1C=C1Sc2ccccc2N1C	4.5 nM
O=[N+]([O-])c1cc(C(F)(F)F)ccc1N1CCCN(C(=S)Nc2ccccc2)CC1	2230 nM
c1ccc(OCCOc2ccc(Nc3ccnc4cc5ccccc5cc34)cc2)cc1	67.5 nM
Cc1cn2c3ccccc3n(CCN3CCCC3)c2n1	1070 nM
CCN(CC)CCCN(Cc1cc2ccc(C)cc2[nH]c1=O)C(=S)Nc1cccc(Cl)c1	448 nM
COc1ccc(C2N(Cc3ccccc3)c3ccccc3N2Cc2ccccc2)cc1	121 nM
CC1(C)N=C(N)N=C(N)N1c1ccccc1	100 nM
Cc1ccccc1N=Nc1ccc(NC(=O)c2ccco2)c(C)c1	300 nM
Cc1oc2c(c1C(=O)NCCCn1ccnc1)C(=O)c1ccccc1C2=O	119 nM
CCCN(C(=O)Nc1c(C(C)C)cccc1C(C)C)C(CC)c1nc2ccccc2c(=O)n1-c1cccc(C)c1 (stereo not given)	6300 nM
CCCc1ccc(C(=O)NC(=O)c2ccccc2O)cc1	4.18 nM
CC(c1nc2ccc(Cl)cc2c(=O)n1C)N1CCN(S(=O)(=O)c2cccc3ccccc23)CC1 (stereo not given)	22.3 nM
O=C(NC(=C(Cl)Cl)[P+](c1ccccc1)(c1ccccc1)c1ccccc1)c1ccc(F)cc1	14.5 nM
NCC(=O)N1CCn2c(nc(-c3ccccc3)c2Nc2ccc3c(c2)OCO3)C1	221 nM
CCC(/C=C1\Sc2ccc(OC)cc2N1CCCS(=O)(=O)O)=C\c1sc2ccc(OC)cc2[n+]1CCCS(=O)(=O)O	11.2 nM
CCn1c(/C=C/C=C2\N(C)c3ccccc3C2(C)C)[n+](Cc2ccccc2)c2ccccc21	6.76 nM
Cc1nc([P+](c2ccccc2)(c2ccccc2)c2ccccc2)c(SCc2ccccc2)o1	33.5 nM
Fc1ccc(-c2c[n+]3c(n2-c2ccccc2)SCC3)cc1	> 4300 nM (inactive)
COc1ccc2c(C)nc(Nc3nc(C)cc(-c4ccccc4)n3)nc2c1	6660 nM
CC[n+]1c(/C=C/N(C)c2ccccc2)n(-c2ccccc2)c2ccc(-c3nc4ccccc4s3)cc21	14 nM

SMILES	IC50
c1ccc(-c2nn(-c3ccccc3)[n+](-c3ccccc3)n2)cc1	107 nM
c1ccc(-c2csc(Nc3nc4cc5c(cc4s3)OCO5)n2)nc1	78.9 nM
CCOc1ccc(NC(=O)C(C)Sc2nc3ccccc3[nH]2)cc1 (stereo not given)	> 10000 nM (inactive)
CCCCn1c(N=Nc2c(O)[nH]c3ccccc23)nc2c1c(=O)[nH]c(=O)n2C	> 10000 nM (inactive)
CCOC(=O)c1ccc(OCC2c3cc(OC)c(OC)cc3CCN2C(=O)c2ccc([N+](=O)[O-])cc2)cc1 (stereo not given)	> 10000 nM (inactive)
CCCN(CCC)CCCNc1ccc(C(=O)Nc2ccc(C)c(F)c2)cc1[N+](=O)[O-]	646 nM
Cc1ccc(C2Sc3ccccc3NC3=C2C(=O)c2ccccc23)cc1 (stereo not given)	278 nM
N#Cc1c2c(c(N3CCN(c4ccccn4)CC3)n3c1nc1ccccc13)CCC2	> 10000 nM (inactive)
O=C1c2ccccc2C2=Nc3ccccc3SC(c3ccccc3F)C12 (stereo not given)	239 nM
Cc1ccc(Nc2nc(NCc3ccccc3)c3ccccc3n2)cc1	278 nM
Cc1[nH]c2ccccc2c(=O)c1CC=C(Cl)Cl	130 nM
CCOC(=O)C1=C(C)NC2=C(C(=O)C(C(=O)OCC)C(c3ccc(OC)cc3)C2)C1c1ccc(OC)c(OC)c1 (stereo not given)	240 nM
O=C1N(Cc2cc3ccccc3s2)CC2CN(Cc3ccsc3)CCN12 (stereo not given)	25.5 nM
Cc1ccc(-c2c[n+]3c(n2-c2ccccc2)SCC3)cc1	1090 nM
COc1ccc(-c2c(C(F)(F)F)nn(C)c2NC(=O)Nc2ccc(F)cc2F)cc1	3450 nM
COc1ccc(C(NC(=O)c2cccnc2)c2cc(Cl)c3cccnc3c2O)cc1 (stereo not given)	542 nM
OCCNc1nc(Nc2ccc(F)cc2)nc2ccccc12	136 nM
CCN1CCN(c2c(C(=O)c3ccccc3)cnc3cc(OC)c(OC)cc23)CC1	367 nM
CCOC(=O)c1ccc(NC(=O)CSc2nc(NCc3ccccc3)c3ccccc3n2)cc1	38.1 nM
COc1cc(C(=O)NCCc2ccccn2)ccc1OC1CCN(CC(c2ccccc2)c2ccccc2)CC1	1280 nM
Cc1cc(NC(c2cccc(Br)c2)c2ccc3cccnc3c2O)no1 (stereo not given)	147 nM
CCOC(=O)c1c[nH]c2ccc(OC)cc2c1=O	293 nM and 135 nM

SMILES	IC50
O=C(Nc1ccc(-c2ccc(Cl)cc2)cc1)c1cccs1	151 nM
Cc1ccc(Nc2nc3c(N)nnc(N)c3nc2Nc2ccc(C)cc2)cc1	488 nM
CCN1CCN(c2cc(C)c3cc(NC(=O)c4cc(OC)cc(OC)c4)ccc3n2)CC1	3740 nM
CCCN[P+](CC(C)C)(NCCC)NCCC	281 nM
O=C(Cc1cccs1)N1CCN(c2ccccn2)CC1	> 10000 nM (inactive)
c1ccc2cc3c(N4CCN(CCN5CCN(c6ccnc7cc8ccccc8cc67)CC5)CC4)ccnc3cc2c1	2910 nM
CC[C@H]1CN2CCc3cc(OC)c(OC)cc3[C@@H]2C[C@@H]1C[C@H]1NCCc2cc(OC)c(OC)cc21	7.49 nM
Cc1[nH]c2ccc(Br)cc2c(=O)c1CC(C)C	244 nM
CC(Oc1ccc(Cl)cc1Cl)c1nc(-c2ccc(NC(=O)c3cccs3)cc2)no1 (stereo not given)	114 nM
N#Cc1ccc(NC(=O)NC2CC3CCCC(C2)N3CCc2ccccc2)cc1 (stereo not given)	497 nM
CCOc1ccc(N2C(N)=NC(N)=NC2(C)C)cc1	46.8 nM
O=C1C2=C(Nc3ccccc3SC2c2ccccc2)c2ccccc21 (stereo not given)	93.7 nM
CCOc1ccc(Nc2cc(=O)oc3ccccc23)cc1	502 nM
FC(F)(F)c1ccccc1NC(=S)N1CCCN(c2nc3ccc(Cl)cc3s2)CC1	1620 nM
CN(Cc1ccccc1)C(=O)CSc1nc(NCc2ccccc2)c2ccccc2n1	7.13 nM
CCC(=O)NC(c1ccccc1Cl)c1cc(Cl)c2cccnc2c1O (stereo not given)	1010 nM
CC[n+]1c(/C=C/C=C2\N(C)c3ccccc3C2(C)C)n(-c2ccccc2)c2cc(Cl)ccc21	13.6 nM
O=C1CC(c2ccccc2)CC2=C1C(c1ccccc1[N+](=O)[O-])Nc1ccccc1N2 (stereo not given)	> 10000 nM (inactive)
Cc1oc2c(c1C(=O)NC1CCS(=O)(=O)C1)C(=O)c1ccccc1C2=O (stereo not given)	2.29 nM
CC(=O)N(C1=C(N2CCOCC2)C(=O)c2ccccc2C1=O)c1ccc(I)cc1	602 nM
Cc1ncc(CCCCN(C)C)c2c1[nH]c1ccccc12	2770 nM
C=CCN1C(=Cc2cc[n+](C)cc2)Sc2ccccc21	13.2 nM

SMILES	IC50
Fc1ccc(Nc2nc(NCc3ccccc3)c3ccccc3n2)cc1	3790 nM
Cc1ccc(-c2[nH]n3c(=O)c4c(nc3c2C)CCCC4)cc1	11.3 nM
CCCCSCC(O)CN1CCCCC1 (stereo not given)	> 10000 nM (inactive)
C=CCc1c(C)[nH]c2ccc(Br)cc2c1=O	181 nM
CCCC(=O)N1CCN(c2nc(Cc3ccccc3)c3c(c2C#N)CC(C)(C)OC3)CC1	348 nM
CSc1nnc(-c2cccc([N+](=O)[O-])c2)n1Cc1ccccc1	2510 nM
O=c1c2ccccc2[nH]c2ccc(I)cc12	105 nM
CC(=O)N(C1=C(N(C)C)C(=O)c2ccccc2C1=O)c1ccc(F)cc1	57.3 nM
CCN(CC)c1ccc(N=Cc2ccc(Sc3nc4ccccc4s3)o2)cc1	> 10000 nM (inactive)
Nc1nonc1-n1nnc(C(=O)NN=Cc2ccc(F)c(Br)c2)c1-c1ccc([N+](=O)[O-])cc1	> 10000 nM (inactive)
O=c1c2ccccc2[nH]c2ccc(F)cc12	223 nM
O=C(c1cccc([N+](=O)[O-])c1)c1ccc(Cl)c(Cl)c1	3810 nM
Cc1ccc(N2C(N)=NC(N)=NC2(C)C)cc1	10 nM
CCC(C)Nc1nc(NC(C)CC)nc(N2CCCCCC2)n1 (stereo not given)	300 nM
COc1ccc2nc(-c3ccccc3)cc(NCCN(C)C)c2c1	570 nM
CCOC(=O)c1c(CNC)n(C)c2cc(Br)c(O)cc12	> 10000 nM (inactive)
CCc1nc(N)nc(N)c1-c1ccc(Cl)cc1	2.15 nM
O=C(c1cnsn1)N1CCCC(COc2cccc(CN3CCC(Cc4ccccc4)CC3)c2)C1 (stereo not given)	609 nM
Cc1cc(C)nc(N=C(N)Nc2cccc(O)c2)n1	152 nM
CCc1cc2c(cc1-c1csc(N=C(N)N)n1)C(C)(C)CCC2(C)C	2900 nM
CC1(C)C2CCC(C2)C1(C)NC(=S)NN=Cc1ccccn1 (stereo not given)	17.4 nM
CCOC(=O)c1c(CSc2ccccc2)oc2cc(CN(C)C)c(O)c(Cl)c12	7200 nM

SMILES	IC50
Cc1[nH]c2ccccc2c(=O)c1Br	214 nM
CC[n+]1c(C=C2C=C(C)OC(C)=C2)sc2ccccc21	245 nM
COC(=O)c1cc(NC(=S)NC(=O)c2c(OC)cccc2OC)cc(C(=O)OC)c1	> 10000 nM (inactive)
O=C(c1cccs1)N1CCN(c2ccc([N+](=O)[O-])c(NC3CC3)c2)CC1	692 nM
O=c1c2c([nH]c3ccccc13)CCCCCC2	727 nM
CCCCCCCn1c2c(c(=N)c3ccccc31)CCC2	76.5 nM
O=C1C2=C(Nc3ccccc3SC2c2ccc(Br)cc2)c2ccccc21 (stereo not given)	327 nM
O=C(Nc1ccc(Oc2cccc(Oc3ccc(NC(=O)c4ccc(Br)o4)cc3)c2)cc1)c1ccc(Br)o1	433 nM
CCOc1ccc(Nc2nc(NCc3ccco3)c3ccccc3n2)cc1	105 nM
CCN1C(=O)N(CC)C(NNC(N)=S)C1NNC(N)=S (stereo not given)	68.6 nM
CC1CC(N(C(=O)c2ccc(Cl)cc2Cl)c2ccccc2)c2ccccc2N1C(=O)c1ccc(Cl)cc1 (stereo not given)	3640 nM
Oc1cccc2ccc(Nc3ccccn3)nc12	142 nM
O=c1c2c(nc3cc(-c4ccc(Br)cc4)[nH]n13)CCCC2	499 nM
CCN(CC)c1ccc(NC(=O)c2cccs2)cc1	396 nM
CCN(CC)CCN(Cc1cc2ccc(C)cc2[nH]c1=O)C(=S)NC(C)c1ccccc1 (stereo not given)	883 nM
NC(Cc1ccccc1)C(=O)N1CCn2c(nc(-c3ccccc3)c2Nc2ccc3c(c2)OCO3)C1 (stereo not given)	1.85 nM
N#Cc1c2c(c(N3CCN(Cc4ccccc4)CC3)n3c1nc1ccccc13)CCC2	> 10000 nM (inactive)
O=C(NC1CC1)C1CCN(c2cccc3c2C(=O)N(Cc2cccc(C(F)(F)F)c2)C3=O)CC1	29.3 nM
Oc1c(CN2CCN(Cc3ccc4cccnc4c3O)CC2)ccc2cccnc12	96.6 nM
COc1ccc2nc(C)cc(Nc3ccc(Oc4ccc(Cl)c5ccccc45)c(Cl)c3)c2c1	267 nM
O=C(O)c1c[nH]c2cc(N3CCCCCC3)c(F)cc2c1=O	> 10000 nM (inactive)
c1ccc(Cc2cc[n+](Cc3ccccc3)cc2)cc1	4520 nM
